Reference: EPA's CvTdb concentration-time database

How the values were obtained:
[1] = tested on: Rat; assay: concentration in liver after dosing; conditions: 864 h; dosed: Perfluorooctane Sulfonate; 20 mg/kg; oral; Male; Harlan Sprague Dawley
[2] = tested on: Rat; assay: concentration in liver after dosing; conditions: 24 h; dosed: Perfluorooctane Sulfonate; 2 mg/kg; oral; Female; Harlan Sprague Dawley
[3] = tested on: Rat; assay: concentration in brain after dosing; conditions: 6 h; dosed: Perfluorooctane Sulfonate; 20 mg/kg; oral; Male; Harlan Sprague Dawley
[4] = tested on: Rat; assay: concentration in liver after dosing; conditions: 1848 h; dosed: Perfluorooctane Sulfonate; 20 mg/kg; oral; Male; Harlan Sprague Dawley
[5] = tested on: Rat; assay: concentration in liver after dosing; conditions: 3360 h; dosed: Perfluorooctane Sulfonate; 20 mg/kg; oral; Male; Harlan Sprague Dawley
[6] = tested on: Rat; assay: concentration in brain after dosing; conditions: 864 h; dosed: Perfluorooctane Sulfonate; 20 mg/kg; oral; Female; F344
[7] = tested on: Rat; assay: concentration in brain after dosing; conditions: 24 h; dosed: Perfluorooctane Sulfonate; 20 mg/kg; oral; Female; F344
[8] = tested on: Rat; assay: concentration in liver after dosing; conditions: 864 h; dosed: Perfluorooctane Sulfonate; 2 mg/kg; oral; Female; Harlan Sprague Dawley
[9] = tested on: Rat; assay: concentration in liver after dosing; conditions: 3360 h; dosed: Perfluorooctane Sulfonate; 20 mg/kg; oral; Male; Harlan Sprague Dawley; remark: listed apart in the source
[10] = tested on: Rat; assay: concentration in plasma after dosing; conditions: 864 h; dosed: Perfluorooctane Sulfonate; 2 mg/kg; oral; Female; Harlan Sprague Dawley
[11] = tested on: Rat; assay: concentration in plasma after dosing; conditions: 1848 h; dosed: Perfluorooctane Sulfonate; 2 mg/kg; oral; Female; Harlan Sprague Dawley
[12] = tested on: Rat; assay: concentration in plasma after dosing; conditions: dosed: Perfluorooctane Sulfonate, 2 mg/kg, iv, Male, F344
[13] = tested on: Rat; assay: concentration in kidney after dosing; conditions: 3360 h; dosed: Perfluorooctane Sulfonate; 20 mg/kg; oral; Male; Harlan Sprague Dawley
[14] = tested on: Rat; assay: concentration in kidney after dosing; conditions: 1848 h; dosed: Perfluorooctane Sulfonate; 2 mg/kg; oral; Female; Harlan Sprague Dawley
[15] = tested on: Rat; assay: concentration in kidney after dosing; conditions: 1848 h; dosed: Perfluorooctane Sulfonate; 2 mg/kg; oral; Female; Harlan Sprague Dawley; remark: listed apart in the source
[16] = tested on: Rat; assay: concentration in plasma after dosing; conditions: 0.5 h; dosed: Perfluorohexanoic Acid; 80 mg/kg; oral; Male; Harlan Sprague Dawley
[17] = tested on: Rat; assay: concentration in kidney after dosing; conditions: 12 h; dosed: Perfluorohexanoic Acid; 80 mg/kg; oral; Male; Harlan Sprague Dawley
[18] = tested on: Rat; assay: concentration in plasma after dosing; conditions: 5 min; dosed: Perfluorohexanoic Acid; 40 mg/kg; iv; Male; F344
[19] = tested on: Rat; assay: concentration in plasma after dosing; conditions: 1 h; dosed: Perfluorohexanoic Acid; 40 mg/kg; iv; Male; F344
[20] = tested on: Rat; assay: concentration in plasma after dosing; conditions: 0.5 h; dosed: Perfluorohexanoic Acid; 40 mg/kg; iv; Male; F344
[21] = tested on: Rat; assay: concentration in plasma after dosing; conditions: 0.5 h; dosed: Gemfibrozil; 4.29 mg/kg; oral; Male; Sprague-Dawley
[22] = tested on: Rat; assay: concentration in plasma after dosing; conditions: 6 h; dosed: Gemfibrozil; 100 mg/kg; oral; Male; Sprague-Dawley
[23] = tested on: Rat; assay: concentration in plasma after dosing; conditions: 15 h; dosed: Gemfibrozil; 4.29 mg/kg; oral; Male; Sprague-Dawley
[24] = tested on: Rat; assay: concentration in brain after dosing; conditions: 0.2 h; dosed: 2-Methyltetrahydrofuran; 40 mg/kg; iv; Male; Harlan Sprague Dawley
[25] = tested on: Rat; assay: concentration in brain after dosing; conditions: 2 min; dosed: 2-Methyltetrahydrofuran; 40 mg/kg; iv; Male; Harlan Sprague Dawley
[26] = tested on: Rat; assay: concentration in plasma after dosing; conditions: 2 h; dosed: 2-Methyltetrahydrofuran; 40 mg/kg; iv; Male; Harlan Sprague Dawley
[27] = tested on: Rat; assay: concentration in plasma after dosing; conditions: 1.5 h; dosed: 2-Methyltetrahydrofuran; 40 mg/kg; iv; Male; Harlan Sprague Dawley
[28] = tested on: Rat; assay: concentration in plasma after dosing; conditions: 2 h; dosed: 2-Methyltetrahydrofuran; 40 mg/kg; iv; Female; Harlan Sprague Dawley
[29] = tested on: Rat; assay: concentration in plasma after dosing; conditions: 6 h; dosed: 2-Methyltetrahydrofuran; 40 mg/kg; iv; Male; Harlan Sprague Dawley
[30] = tested on: Rat; assay: concentration in plasma after dosing; conditions: 0.75 h; dosed: 2-Methyltetrahydrofuran; 40 mg/kg; iv; Male; Harlan Sprague Dawley
[31] = tested on: Rat; assay: concentration in plasma after dosing; conditions: 6 h; dosed: 2-Methyltetrahydrofuran; 40 mg/kg; iv; Male; Harlan Sprague Dawley; remark: listed apart in the source
[32] = tested on: Rat; assay: concentration in plasma after dosing; conditions: 0.75 h; dosed: 2-Methyltetrahydrofuran; 40 mg/kg; iv; Male; Harlan Sprague Dawley; remark: listed apart in the source
[33] = tested on: Rat; assay: concentration in liver after dosing; conditions: 6 h; dosed: Fluorotelomer alcohol 8+2; 80 mg/kg; oral; Female; Harlan Sprague Dawley
[34] = tested on: Rat; assay: concentration in liver after dosing; conditions: 1 h; dosed: Fluorotelomer alcohol 8+2; 24 mg/kg; oral; Male; Harlan Sprague Dawley
[35] = tested on: Rat; assay: concentration in brain after dosing; conditions: 3 h; dosed: Fluorotelomer alcohol 8+2; 24 mg/kg; oral; Male; Harlan Sprague Dawley
[36] = tested on: Rat; assay: concentration in brain after dosing; conditions: 12 h; dosed: Fluorotelomer alcohol 8+2; 24 mg/kg; oral; Male; Harlan Sprague Dawley
[37] = tested on: Rat; assay: concentration in liver after dosing; conditions: 1 h; dosed: Fluorotelomer alcohol 8+2; 80 mg/kg; oral; Female; Harlan Sprague Dawley
[38] = tested on: Rat; assay: concentration in liver after dosing; conditions: 6 h; dosed: Fluorotelomer alcohol 8+2; 24 mg/kg; oral; Male; Harlan Sprague Dawley
[39] = tested on: Rat; assay: concentration in kidney after dosing; conditions: 1 h; dosed: Fluorotelomer alcohol 8+2; 24 mg/kg; oral; Male; Harlan Sprague Dawley
[40] = tested on: Rat; assay: concentration in plasma after dosing; conditions: dosed: 678-39-7, 12 mg/kg, iv, Male, F344

O=S(=O)([O-])C(F)(F)C(F)(F)C(F)(F)C(F)(F)C(F)(F)C(F)(F)C(F)(F)C(F)(F)F [Perfluorooctane Sulfonate]
Conditions | concentration in brain [ng/g] | concentration in kidney [ng/g] | concentration in liver [ng/g] | concentration in plasma [ng/mL]
[1] | – | – | 97500 | –
[2] | – | – | 20600 | –
[3] | 4440 | – | – | –
[4] | – | – | 59600 | –
[5] | – | – | 29800 | –
[6] | 2730 | – | – | –
[7] | 15200 | – | – | –
[8] | – | – | 11100 | –
[9] | – | – | 8480 | –
[10] | – | – | – | 1480
[11] | – | – | – | 987
[13] | – | 4960 | – | –
[14] | – | 2450 | – | –
[15] | – | 2750 | – | –

[12]
Conditions | concentration in plasma [ng/mL]
12 h | 4880
864 h | 2120

O=C(O)C(F)(F)C(F)(F)C(F)(F)C(F)(F)C(F)(F)F [Perfluorohexanoic Acid]
Conditions | concentration in kidney [ng/g] | concentration in plasma [ng/mL]
[16] | – | 105000
[17] | 1180 | –
[18] | – | 540
[19] | – | 20100
[20] | – | 8680

Cc1ccc(C)c(OCCCC(C)(C)C(=O)O)c1 [Gemfibrozil]
Conditions | concentration in plasma [ng/mL]
[21] | 570
[22] | 13800
[23] | 285

CC1CCCO1 (configuration not stated) [2-Methyltetrahydrofuran]
Conditions | concentration in brain [ng/mL] | concentration in plasma [ng/mL]
[24] | 24100 | –
[25] | 34000 | –
[26] | – | 13900
[27] | – | 11000
[28] | – | 3580
[29] | – | 16.9
[30] | – | 22000
[31] | – | 29.7
[32] | – | 29200

O=C(O)CCC(F)(F)C(F)(F)C(F)(F)C(F)(F)C(F)(F)C(F)(F)C(F)(F)F [Fluorotelomer acid 7+3]
Conditions | concentration in brain [ng/g] | concentration in kidney [ng/g] | concentration in liver [ng/g]
[33] | – | – | 7770
[34] | – | – | 693
[35] | 463 | – | –
[36] | 98.2 | – | –
[37] | – | – | 1620
[38] | – | – | 1500
[39] | – | 568 | –

[40]
Conditions | concentration in plasma [ng/mL]
0.5 h | 167
9 h | 164
